One experiment addresses T1, human tyrosinase (hTYR) (Homo sapiens, UniProt P14679).
T1 construct: tyrosinase enzyme solution derived from MNT‐1 cells; endogenous in cells; host or cells: MNT-1 human melanoma cell line (crude lysate supernatant)
T1 sequence (P14679 19-529): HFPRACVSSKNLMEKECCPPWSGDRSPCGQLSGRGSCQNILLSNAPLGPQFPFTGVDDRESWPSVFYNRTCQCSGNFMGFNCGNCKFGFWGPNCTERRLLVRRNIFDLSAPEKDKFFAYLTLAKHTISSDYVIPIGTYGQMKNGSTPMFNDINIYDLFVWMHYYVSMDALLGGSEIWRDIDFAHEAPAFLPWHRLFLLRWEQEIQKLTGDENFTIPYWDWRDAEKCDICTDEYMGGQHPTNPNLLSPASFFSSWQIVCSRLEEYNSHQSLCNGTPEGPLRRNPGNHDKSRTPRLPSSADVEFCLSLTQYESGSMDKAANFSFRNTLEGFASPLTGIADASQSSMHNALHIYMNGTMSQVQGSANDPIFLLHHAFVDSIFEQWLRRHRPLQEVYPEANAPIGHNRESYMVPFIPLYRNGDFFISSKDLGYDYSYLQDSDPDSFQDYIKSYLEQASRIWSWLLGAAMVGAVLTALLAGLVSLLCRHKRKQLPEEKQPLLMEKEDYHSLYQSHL
Kind of experiment: L‐DOPA oxidation assay for tyrosinase activity (MNT‐1 cell lysate). In kind it is biochemical. The method, then: The hTYR‐mediated L‐DOPA oxidation assay was performed according to Winder and Harris. MNT‐1 cells were resuspended in 0.05 M sodium phosphate buffer (pH 6.9) and sonicated for 1 min. After incubation on ice for 3–5 min, the mixture underwent a second sonication. The lysate was centrifuged at 13 000 rpm for 15 min at 4°C, and the supernatant was collected and kept on ice.
For the assay, 20 μL of crude enzyme solution and 80 μL sodium phosphate buffer were added to a 96‐well plate and centrifuged at 1000 rpm for 30 s. Subsequently, 2 μL of different concentrations of test compounds were added to each well, followed by centrifugation at 1000 rpm for 30 s. Finally, 100 μL L‐DOPA (final concentration 4 mM) was added to initiate the reaction. The microplate reader (Synergy H1 Hybrid Reader, BioTek) was used to monitor the reaction at 26°C, measuring absorbance at 475 nm every minute for 60 min. IC50 values were calculated using GraphPad software based on Vmax values from the kinetic curves.
The L‐DOPA tyrosinase assay was performed using a tyrosinase enzyme solution derived from MNT‐1 cells in 50 mM sodium phosphate buffer (pH 6.9), with a substrate (L‐DOPA) concentration of 4 mM and various concentrations of inhibitors as indicated. Data represent mean ± standard deviation of three independent experiments.

The next experiment deals with MNT‐1 cells. Put plainly: Melanin content in MNT‐1 cells after 6 days of treatment. In kind it is cell-based, human. The procedure: MNT‐1 cells were exposed to varying concentrations of test compounds for 6 days. After treatment, cells were harvested and lysed in RIPA buffer on ice for 20 min. Lysates were centrifuged at 13 000 rpm for 10 min at 4°C, and the supernatant was collected. Protein concentration was quantified using a BCA Protein Assay Kit (Thermo Fisher). To extract melanin, cell pellets were dissolved in 1 M NaOH and incubated for 3 h at 80°C. Absorbance at 405 nm was measured using a Synergy H1 Hybrid Reader. Melanin content was quantified by referencing a standard curve of synthetic melanin (maximum concentration 50 μg/mL, 2‐fold gradient dilution, 8 concentration points). Melanin content was normalized to protein concentration (μg melanin/mg protein), and IC50 values were calculated using GraphPad software.
FIGURE 3 Inhibition of melanin production in MNT‐1 by KT‐939, Thiamidol, and 4‐butylresorcinol. MNT‐1 cells were treated with different concentrations of KT‐939, Thiamidol, or 4‐butylresorcinol for 6 days. The melanin content was quantified based on the standard curve of melanin, and the melanin content per mg of protein was utilized for IC50 calculations with GraphPad software.

The nature of experiment [1]: DPPH radical scavenging assay. The method, then: A DPPH radical scavenging assay kit (Solarbio) was used to assess antioxidant activity, following the manufacturer's instructions. Briefly, 10 μL of each test compound at the indicated concentrations was mixed with 190 μL DPPH solution in a 96‐well plate. Control wells (10 μL compound + 190 μL ethanol) and blank wells (10 μL solvent + 190 μL ethanol) were included. The reaction mixtures were gently shaken and incubated for 30 min at room temperature in the dark. Absorbance was measured at 515 nm using a Synergy H1 Hybrid Reader.
A DPPH radical scavenging assay was conducted to evaluate the antioxidant activity of KT‐939 at various concentrations, with a maximum concentration of 10 mM in a 5‐fold dilution series. Data represent mean ± standard deviation of three independent experiments.

Each structure is given as a SMILES string.

As to `CC1(C(=O)Nc2nc(-c3ccc(O)cc3O)cs2)COC1` [KT‐939, N‐(4‐(2,4‐Dihydroxyphenyl) Thiazol‐2‐yl)‐3‐Methyloxetane‐3‐Carboxamide], the IC50 stood at 70 nM at human tyrosinase (hTYR) (MNT‐1 lysate, L‐DOPA 4 mM, pH 6.9, read-out: IC50 against hTYR) and 360 nM with MNT‐1 cells (Homo sapiens, 144 h, MNT‐1, 6 days, read-out: IC50 of melanin production). Besides, at human tyrosinase (hTYR) (at concentrations ≥ 0.4 μM), the “inhibition of hTYR” value is recorded as “nearly complete inhibition”. In addition, the “fold greater hTYR potency than 4‐butylresorcinol” value at human tyrosinase (hTYR) (ratio of IC50, vs 4‐butylresorcinol) was roughly 100 fold. Also, the “fold greater hTYR potency than 377” value on human tyrosinase (hTYR) (ratio of IC50, vs 377) is “over 300 fold”. Moreover, the “fold greater hTYR potency than Thiamidol” value on human tyrosinase (hTYR) (ratio of IC50, vs Thiamidol) is listed as ~ 4 fold. The “fold greater hTYR potency than resveratrol” value on human tyrosinase (hTYR) (ratio of IC50, vs resveratrol) is recorded as roughly 86 fold. The inhibition at 0.37 µM in the experiment with MNT‐1 cells (Homo sapiens, MNT-1, 144 h, 0.37 μM, 6 days, read-out: inhibition of melanin production) was 48.4%. Also, the inhibition at 1.1 µM in the experiment with MNT‐1 cells (Homo sapiens, MNT-1, 144 h, 1.1 μM, 6 days, read-out: inhibition of melanin production) was determined as 63.3%. Moreover, the inhibition at 3.3 µM in the experiment with MNT‐1 cells (Homo sapiens, MNT-1, 144 h, 3.3 μM, 6 days, read-out: inhibition of melanin production) turned out to be 83.9%. The inhibition at 10 µM in the experiment with MNT‐1 cells (Homo sapiens, MNT-1, 144 h, 10 μM, 6 days, read-out: inhibition of melanin production) is 86.7%. In the experiment on MNT‐1 cells (ratio of IC50, vs Thiamidol), the “fold greater melanin inhibitory potency compared to Thiamidol” value was “approximately 3.6 fold”. Moreover, the DPPH clearance rate was 8.9% in experiment [1] (0.4 mM); 20.2% in experiment [1] (2 mM); 43.2% in experiment [1] (10 mM); “exceeding 40%” in experiment [1] (as summed up in the discussion, concentration not given).

For orientation: IC50 means the concentration needed to halve the response being measured. One may read the inhibition as the percentage by which the read-out fell short of the control.

Values taken from paper PMC12569736 (Journal of Cosmetic Dermatology, 2025).
